This is an account of results in patent publication US10183033B2, “Triptolide prodrugs” (priority 2009, dated 2019).

The conditions of data set [1]: Tris buffer (pH 7.4) and Borate buffer (pH 7.4), room temperature.
Data set [2] concerns MiaPaca-2 cells. The experiment in a line: Comparative in vivo study, orthotopic MiaPaca-2 pancreatic tumor in nude mice. Particulars: i.p. daily 60 days. As for the experimental part:
Thirty nude mice of the strain athymic nu/nu were obtained from National Cancer Institute (NCI) (Rockville, Md.) and kept in a RAR facility. The mice were anaesthetized in accordance with the recommendations of the RAR facility using ketamine 75-200 mg/kg and xylazine 4-8 mg/kg. A small incision 3 mm was made on the left side of the abdominal wall and the spleen was pulled out with forceps far enough to expose and access the pancreas. MiaPaca-2 cell medium was prepared and kept on ice until delivery into the mice. Into each of the mice, 1 million MiaPaca-2 cells suspended in MATRIGEL™ (available from Becton-Dickinson Corporation, Franklin Lakes, N.J.) was injected into the tail of the pancreas (identified by its anatomical attachment with the spleen) using a Hamilton syringe. Following delivery of the cells, the syringe was held steady for an additional 5-10 seconds to permit the MATRIGEL™ to set. The spleen was replaced back into the abdominal cavity, and the abdominal wall was closed by vicryl suture in a continuous manner. The skin was apposed and closed using wound clips. The mice were then transferred to a heating pad until fully recovered before being returned to the cage. Post-operative pain medication (buprenonorphine 0.1 mg/kg) was administered intraperitoneally immediately after full recovery from anaesthesia to prevent respiratory depression and then administered every 12 hours for 2 days. The wound clips were removed from the mice after 7 days of surgery.
The mice were then randomized into 3 groups, each group having 10 mice. The groups were as follows: control group, triptolide group and the triptolide prodrug (compound 1) group. The control group consisted of mice that were injected intraperitoneally with vehicle DMSO.
The triptolide group subjects were injected with 0.2 mg/kg of triptolide dissolved in DMSO and diluted with phosphate buffered saline to a volume of 100 the intraperitoneal injections being daily over a period of 60 days. The compound 1 subjects were intraperitoneally injected daily for 60 days with 0.28 mg/kg of the compound dissolved in phosphate buffered saline diluted to a volume of 100 μl.
The mice were euthanized under anaesthesia at the conclusion of the 60 day treatments. Samples were collected (blood, lung, spleen, liver, kidneys and tumor tissue), and tumor volume and weight were measured and compared among the different groups. Observations were made on the loco-regional growth and cancer growth.

Data set [3] has as its system MIA PaCa-2 cells. The experiment in a line: Orthotopic mouse model of pancreatic cancer (60 day dosing study). Type of data set: in vivo, mice. As to conditions: i.p. 60 d, compound 1 0.1-0.9 mg/kg; for survival versus vehicle: triptolide 0.2 mg/kg QD, observed another 28 d, FIG. 13, 14. The method, then:
MIA PaCa-2 cells (1×10^6) were suspended in matrigel and injected into the tail of the pancreas of 4-6 week old female nude mice. Ten days post-cell implantation, mice were injected intraperitoneally with indicated concentrations of compound 1 (0.1, 0.15, 0.3, 0.6 or 0.9 mg/kg) or 0.2 mg/kg Triptolide QD for 60 d. Control mice were injected with saline BID. […] Tumor samples, if any, were harvested from these mice, and tumor weight and volume measured. If tumor burden exceeded University of Minnesota animal care guidelines, mice were sacrificed at earlier time points and their tumors harvested.

The subject of data set [4] is alkaline phosphatase. The experiment in a line: In vitro enzymatic conversion (hydrolysis) by alkaline phosphatase. The data set is classed as in vitro ADME, bovine. As to conditions: bovine. As for the experimental part: (§1) Compound 1 is converted into the active triptolide form by action of the enzyme alkaline phosphatase. An in vitro experiment to study the bioconversion of the triptolide prodrug compound of the invention was performed. In vitro bioconversion was simulated using alkaline phosphatase (from bovine intestinal mucosa, Type VII-S available from Sigma-Aldrich (St. Louis, Mo.) in glycine buffer (pH 9.8).
(§2) The first order degradation constant was calculated by fitting the remaining concentration versus the incubation time. The degradation half-life (t½) of compound 1 was determined to be 2 minutes.

In data set [5] the test system is alkaline phosphatase (from bovine intestinal mucosa, Type VII-S). Described as above. The data set is classed as in vitro ADME. Particulars: alkaline phosphatase in glycine buffer (pH 9.8), FIG. 3. As for the experimental part: as §1, §2
The test system of data set [6] is SkChA-1 cells. The experiment in a line: Subcutaneous mouse model of cholangiocarcinoma. Type of data set: in vivo, mice. As to conditions: 0.3 mg/kg i.p. BID for 25 days; FIG. 17. As for the experimental part: SkChA-1 cells (5×10^5) were suspended in matrigel and injected subcutaneously into the left flank of 4-6 week old female nude mice. Seven days post-cell implantation, mice were injected intraperitoneally with 0.3 mg/kg of compound 1 BID for 25 days. Treatment was stopped at this point, and mice sacrificed. Tumor samples, if any, were harvested from these mice, and tumor weight and volume measured. If tumor burden exceeded University of Minnesota animal care guidelines, mice were sacrificed and their tumors harvested at an earlier time point. Control mice were injected with saline BID.

Data set [7] has as its system Pancreatic cancer cells (MiaPaca-2, Panc-1, S2VP10). The experiment in a line: Comparative in vitro cell viability (Dojindo Cell Counting Kit-8). Particulars: 50 to 200 nmol/L, 24 and 48 hours; prodrug with alkaline phosphatase; FIG. 4-6. In general terms: Tetrazolium assays rely on reduction of a dye to a coloured formazan, in cell work by metabolically active cells.

Data set [8] has as its system S2013, a highly metastatic pancreatic cancer cell line. The experiment in a line: Orthotopic mouse model of pancreatic cancer (21 day dosing study). Type of data set: in vivo, mice. Particulars: 0.42 mg/kg i.p. for 21 d; FIG. 16. As for the experimental part:
1×10^6 Cells of S2013, a highly metastatic pancreatic cancer cell line, were suspended in matrigel and injected into the tail of the pancreas of 4-6 week old female nude mice. Seven days post-cell implantation, mice were injected intraperitoneally with 0.42 mg/kg of compound 1 for 21 d. Treatment was stopped after 21 d, and mice sacrificed. Tumor samples, if any, were harvested from these mice, and tumor weight and volume measured. If tumor burden exceeded University of Minnesota animal care guidelines, mice were sacrificed and their tumors harvested at an earlier time point. Control mice were injected with saline QD.

The test system of data set [9] is Neuroblastoma N2 cells. The experiment in a line: Orthotopic mouse model of neuroblastoma. Type of data set: in vivo. As to conditions: 0.4 mg/kg i.p. for 21 days, A/J immunocompetent mice; FIG. 18. The method, then:
Neuroblastoma N2 cells (1×10^6) were suspended in matrigel and injected into the left retroperitoneal space of 4-6 week old A/J immunocompetent mice. Three days post-cell implantation, mice were injected with 0.4 mg/kg of triptolide intraperitoneally for 21 days. Treatment was stopped at this point, and mice sacrificed. Tumor samples, if any, were harvested from these mice, and tumor weight and volume measured. If tumor burden exceeded University of Minnesota animal care guidelines, mice were sacrificed and their tumors harvested at an earlier time point. Control mice were injected with DMSO for 21 days.

For data set [10], the system named is Neuroblastoma N2a. The experiment in a line: Neuroblastoma cell killing. Type of data set: cell-based. As for the experimental part: (§3) Neuroblastoma N2a and SKNSH cells were treated with triptolide, resulting in dose- and time-dependent cell killing in N2a, with more than 50% of cells killed with 62.5 nM triptolide at 24 hours and nearly 85% of cells killed with 250 nM triptolide at 48 hours (FIG. 19). To confirm the hypothesis that triptolide results in neuroblastoma cell death via an apoptotic pathway, caspase-3 activity was measured as a marker of apoptosis. In both cell lines, increases in caspase activity with higher doses of triptolide and longer duration of therapy.

In data set [11] the test system is caspase-3. The experiment in a line: Caspase-3 activity in neuroblastoma cells. The data set is classed as cell-based. As to conditions: N2a and SKNSH cells; FIG. 20. The method, then:
as §3

The mark [12] stands for this setting: triptolide 0.2 mg/kg, compound 1 0.28 mg/kg.
Where [13] appears, read: pH 9.8, Alkaline Phosphatase, 37° C., read-out: Enzymatic Hydrolysis (t½), Alkaline Phosphatase, 37° C.

Where a name gives a salt, the structure may show the parent alone. Read-outs that look alike come from different tables or passages of the source. Bounds are passed on as bounds.

On to `CC(C)[C@]12O[C@H]1[C@@H]1O[C@]13[C@]1(O[C@H]1C[C@H]1C4=C(CC[C@@]13C)C(=O)OC4)[C@@H]2OCOP(=O)(O)O` [Compound 1, 14-O-Phosphonooxymethyltriptolide Disodium Salt], for which the “degradation after 1 month” value in data set [1] is given as “no degradation”. For the same compound, the “pancreatic tumor growth inhibition vs untreated control” value in data set [2] (0.28 mg/kg compound 1) is reported as “considerable pancreatic tumor growth inhibition”. For the same compound, in data set [2] (setting [12]), the “impact on body weight” value is “no apparent significant impact”, the signs of toxicity result is “no apparent signs of toxicity” and the “tumor volume vs untreated control” value is “significantly reduced”. Moreover, the “tumor burden (tumor volume or tumor weight) versus control” value in data set [3] (FIG. 15) was “decreased tumor burden”. In addition, the survival versus vehicle entry in data set [3] is given as “enhanced survival”. In addition, the half-life in [4] (alkaline phosphatase in glycine buffer (pH 9.8), first order fit, read-out: degradation half-life (t½)) is 2 min. In [5], the “time period in which the majority of conversion to triptolide took place” value was ≤ 10 min. In addition, in data set [6], the “tumor burden (tumor volume or tumor weight) versus control” value is on record as “decreased tumor burden”. Moreover, the pancreatic cell viability entry in [7] is given as “significantly reduced”. In addition, the “tumor burden (tumor volume or tumor weight) versus control” value in [8] is on record as “decreased tumor burden”.
In the case of `CC(O[C@@H]1[C@@]2(C(C)C)O[C@H]2[C@@H]2O[C@]23[C@]12O[C@H]2C[C@H]1C2=C(CC[C@@]13C)C(=O)OC2)OP(=O)(O)O` (stereo partly drawn) [Example 3, 14-O-Phosphonooxyethyltriptolide Disodium Salt], the half-life in data set [4] (setting [13]) was 9 min.
Consider `CCC(O[C@@H]1[C@@]2(C(C)C)O[C@H]2[C@@H]2O[C@]23[C@]12O[C@H]2C[C@H]1C2=C(CC[C@@]13C)C(=O)OC2)OP(=O)(O)O` (stereo partly drawn) [Example 4, 14-O-Phosphonooxypropyltriptolide Disodium Salt], for which the half-life in data set [4] (setting [13]) was determined as 17 min.
`CC(C)[C@]12O[C@H]1[C@@H]1O[C@]13[C@]1(O[C@H]1C[C@H]1C4=C(CC[C@@]13C)C(=O)OC4)[C@@H]2O` [triptolide]: the “tumor volume vs untreated control” value in data set [2] (setting [12]) is “significantly reduced”. Moreover, the “tumor burden (tumor volume and tumor mass) versus control” value in data set [9] is on record as “decreased tumor burden”. The survival versus vehicle entry in [3] is given as “enhanced survival”. Further, the cells killed result in [10] (62.5 nM, 24 hours) is “more than 50%”; in data set [10] (250 nM, 48 hours), ~85%. For the same compound, in data set [11], the caspase-3 activity levels result was “dose- and time-dependent increases”. Moreover, the pancreatic cell viability entry in [7] is reported as “significantly reduced”.
